Measurements taken from patent publication US12673942B2, “Azabicyclyl-substituted heterocycles as fungicides” (Bayer Aktiengesellschaft, priority 2020, dated 2026).

How the values were obtained:
[1] = Measurement of Log P values by HPLC on reversed phase columns (EEC directive 79/831 Annex V.A8); type: physicochemical; details: method [a]: LC-UV, acidic range, 0.1% formic acid in water and acetonitrile as eluent
Experimental: Measurement of Log P values as provided herein was performed according to EEC directive 79/831 Annex V.A8 by HPLC (High Performance Liquid Chromatography) on reversed phase columns with the following methods: • ^[a] Log P value is determined by measurement of LC-UV, in an acidic range, with 0.1% formic acid in water and acetonitrile as eluent (linear gradient from 10% acetonitrile to 95% acetonitrile). • ^[b] Log P value is determined by measurement of LC-UV, in a neutral range, with 0.001 molar ammonium acetate solution in water and acetonitrile as eluent (linear gradient from 10% acetonitrile to 95% acetonitrile). • ^[c] Log P value is determined by measurement of LC-UV, in an acidic range, with 0.1% phosphoric acid and acetonitrile as eluent (linear gradient from 10% acetonitrile to 95% acetonitrile).
If more than one Log P value is available within the same method, all the values are given and separated by “+”. […]

Alternaria alternata = Alternaria alternata in vitro cell test; type: cell-based; details: 120 h, 20 ppm of active ingredient, liquid culture, 5 days incubation, read-out: efficacy (inhibition of fungal growth)
Experimental: (§1) • Solvent: […] Fungicides were solubilized in DMSO and the solution used to prepare the required range of concentrations. The final concentration of DMSO used in the assay was ≤1%. A spore suspension of Alternaria alternata was prepared and diluted to the desired spore density. Fungicides were evaluated for their ability to inhibit spore germination and mycelium growth in liquid culture assay. The compounds were added in the desired concentration to the culture medium with spores. After 5 days incubation, fungi-toxicity of compounds was determined by spectrometric measurement of mycelium growth. Inhibition of fungal growth was determined by comparing the absorbance values in wells containing the fungicides with the absorbance in control wells without fungicides.

Fusarium culmorum = Fusarium culmorum in vitro cell test; type: cell-based; details: 96 h, 20 ppm of active ingredient, liquid culture, 4 days incubation, read-out: efficacy (inhibition of fungal growth)
Experimental: • Solvent: DMSO • Culture medium: 14.6 g anhydrous D-glucose (VWR), 7.1 g Mycological Peptone (Oxoid), 1.4 g granulated Yeast Extract (Merck), QSP 1 liter • Inoculum: spore suspension
Fungicides were solubilized in DMSO and the solution used to prepare the required range of concentrations. The final concentration of DMSO used in the assay was ≤1%.
A spore suspension of Fusarium culmorum was prepared and diluted to the desired spore density.
Fungicides were evaluated for their ability to inhibit spore germination and mycelium growth in liquid culture assay. The compounds were added in the desired concentration to the culture medium with spores. After 4 days incubation, fungi-toxicity of compounds was determined by spectrometric measurement of mycelium growth. Inhibition of fungal growth was determined by comparing the absorbance values in wells containing the fungicides with the absorbance in control wells without fungicides.

Pyricularia oryzae = assay: microbe, parasite or virus in culture; type: cell-based; details: 120 h, read-out: efficacy (inhibition of fungal growth)
[2] = test system: Colletotrichum lindemuthianum; assay: Colletotrichum lindemuthianum in vitro cell test; type: cell-based; details: 144 h, 20 ppm of active ingredient, liquid culture, 6 days incubation, read-out: efficacy (inhibition of fungal growth)
Experimental: as §1, with “1%.” for “≤1%.”, “Colletotrichum lindemuthianum” for “Alternaria alternata”, “6” for “5”

Septoria tritici = Septoria tritici in vitro cell test; type: cell-based; details: Zymoseptoria tritici, 168 h; 20 ppm of active ingredient; liquid culture, 7 days incubation; read-out: efficacy (inhibition of fungal growth)
Experimental: • Solvent: DMSO • Culture medium: 1 g KH2PO4 (VWR), 1 g K2HPO4 (VWR), 0.5 g Urea (VWR), 3 g KNO3 (Prolabo), 10 g saccharose (VWR), 0.5 g MgSO4, 7H2O (Sigma), 0.07 g CaCl2, 2H2O (Prolabo), 0.2 mg MnSO4, H2O (Sigma), 0.6 mg CuSO4, 5H2O (Sigma), 7.9 mg ZnSO4, 7H2O (Sigma), 0.1 mg H3BO3 (Merck), 0.14 mg NaMoO4, 2H2O (Sigma), 2 mg thiamine (Sigma), 0.1 mg biotine (VWR), 4 mg FeSO4, 7H2O (Sigma), QSP 1 liter • Inoculum: spore suspension Fungicides were solubilized in DMSO and the solution used to prepare the required range of concentrations. The final concentration of DMSO used in the assay was 1%. A spore suspension of Septoria tritici was prepared and diluted to the desired spore density. Fungicides were evaluated for their ability to inhibit spore germination and mycelium growth in liquid culture assay. The compounds were added in the desired concentration to the culture medium with spores. […] Inhibition of fungal growth was determined by comparing the absorbance values in wells containing the fungicides with the absorbance in control wells without fungicides.

With `C=Cc1cccc(Oc2cnc3ccccc3c2C2=NOC[C@@H](Cc3ccc(C)cc3C)N2)c1` (racemic) [Compound I-018] the chromatographic logP [1] was 4.23, the inhibition at 20 ppm (Alternaria alternata) was ≥ 70% and the inhibition at 20 ppm (Fusarium culmorum) was ≥ 70%. The inhibition at 20 ppm (Pyricularia oryzae) was ≥ 70%, the inhibition at 20 ppm [2] was ≥ 70% and the inhibition at 20 ppm (Septoria tritici) was ≥ 70%.
With `C#Cc1cccc(Oc2cnc3ccccc3c2C2=NOC[C@@H](Cc3ccc(C)cc3C)N2)c1` (racemic) [Compound I-016] the chromatographic logP [1] was 4.05, the inhibition at 20 ppm (Alternaria alternata) was ≥ 70% and the inhibition at 20 ppm (Fusarium culmorum) was ≥ 70%. The inhibition at 20 ppm (Pyricularia oryzae) was ≥ 70%, the inhibition at 20 ppm [2] was ≥ 70% and the inhibition at 20 ppm (Septoria tritici) was ≥ 70%.
In the case of `Cc1ccc(C[C@@H]2CON=C(c3c(Oc4cccc(C5CC5)c4F)cnc4ccccc34)N2)c(C)c1` (racemic) [Compound I-017], the chromatographic logP [1] is reported as 4.51, the inhibition at 20 ppm (Alternaria alternata) is reported as ≥ 70% and the inhibition at 20 ppm (Fusarium culmorum) is reported as ≥ 70%. The inhibition at 20 ppm (Pyricularia oryzae) was ≥ 70%, the inhibition at 20 ppm [2] was ≥ 70% and the inhibition at 20 ppm (Septoria tritici) was ≥ 70%.
In the case of `Cc1ccc(C[C@@H]2CON=C(c3c(Oc4cccc(Br)c4F)cnc4ccccc34)N2)c(C)c1` (racemic) [Compound I-019], the chromatographic logP [1] is reported as 4.33, the inhibition at 20 ppm (Alternaria alternata) is reported as ≥ 70% and the inhibition at 20 ppm (Fusarium culmorum) is reported as ≥ 70%. The inhibition at 20 ppm (Pyricularia oryzae) was ≥ 70%, the inhibition at 20 ppm [2] was ≥ 70% and the inhibition at 20 ppm (Septoria tritici) was ≥ 70%.
